# Assay results published in patent publication US20120122727A1, “IN VITRO METHOD FOR PREDICTING WHETHER A COMPOUND IS GENOTOXIC IN VIVO” (priority 2009, published 2012).
# Experiments:
# [1] = tested on: primary mouse hepatocytes; assay: Gene expression (Affymetrix Mouse Genome 430 2.0) in primary mouse hepatocytes, true vs false GTX, 24 h and 48 h; conditions: log2, corrected for vehicle control
# [2] = tested on: primary mouse hepatocytes
structure (smiles),measurement,setting,value
"c1ccc2c(c1)cc1ccc3cccc4ccc2c1c34 [BaP, Benzo(a)pyrene]",Gene expression data AF000969 (Cadps2),[1]; 24 h average,−1.91
same,Gene expression data AF022072 (Grb10),[1]; 24 h average,−0.2844
same,Gene expression data AF065917 (Lif),[1]; 24 h average,0.9227
same,Gene expression data AF297615 (Ggta1),[1]; 24 h average,1.735
same,Gene expression data AI594683 (Dmn),[1]; 24 h average,0.731
same,Gene expression data AI596632 (Ptprg /// LOC632664),[1]; 24 h average,−1.8362
same,Gene expression data AI987929 (Ndrg1),[1]; 24 h average,−0.3648
same,Gene expression data AK004419 (Fbxl17),[1]; 24 h average,−1.001
same,Gene expression data AK005731 (1700007K13Rik),[1]; 24 h average,2.016
same,Gene expression data AK007766 (1810044A24Rik),[1]; 24 h average,−1.288
same,Gene expression data AK007854 (1810053B23Rik),[1]; 24 h average,0.3514
same,Gene expression data AK009736 (Gpr137b /// LOC664862 /// LOC673335),[1]; 24 h average,0.2174
same,Gene expression data AK010447 (Smyd3),[1]; 24 h average,−1.0413
same,Gene expression data AK014608 (4632434l11Rik),[1]; 24 h average,1.665
same,Gene expression data AK019979 (2610528E23Rik),[1]; 24 h average,−0.6154
same,Gene expression data AV095209 (Mthfd1l),[1]; 24 h average,−0.5885
same,Gene expression data AV141095 (1110033M05Rik),[1]; 24 h average,−1.058
same,Gene expression data AV173571 (1700106N22Rik),[1]; 24 h average,−1.123
same,Gene expression data AV219418 (Ldhb),[1]; 24 h average,0.2781
same,Gene expression data AV223474 (Zdhhc14),[1]; 24 h average,−1.375
same,Gene expression data AV298304 (Homez),[1]; 24 h average,0.6204
same,Gene expression data AV327248 (Zfp365 /// LOC674611),[1]; 24 h average,1.102
same,Gene expression data AV377066 (9130221J18Rik),[1]; 24 h average,0.7572
same,Gene expression data AW240761 (Tbc1d5),[1]; 24 h average,−0.703
same,Gene expression data AW543460 (Pard3),[1]; 24 h average,−0.6194
same,Gene expression data AW543723,[1]; 24 h average,1.993
same,Gene expression data AW986246 (Maoa),[1]; 24 h average,0.1617
same,Gene expression data BB027848 (4732466D17Rik),[1]; 24 h average,0.0761
same,Gene expression data BB043558 (9230114K14Rik),[1]; 24 h average,1.247
same,Gene expression data BB275142 (AW456874),[1]; 24 h average,1.003
same,Gene expression data BB308836 (Ppm1l),[1]; 24 h average,−0.6122
same,Gene expression data BB318221 (Zdhhc14),[1]; 24 h average,−1.679
same,Gene expression data BB463610 (4632434l11Rik),[1]; 24 h average,2.144
same,Gene expression data BB526605 (Mipol1),[1]; 24 h average,−0.7419
same,Gene expression data BB770528 (Rai2),[1]; 24 h average,0.6977
same,Gene expression data BB821363 (Scfd2),[1]; 24 h average,−1.403
same,Gene expression data BC004827 (Psat1),[1]; 24 h average,−0.04097
same,Gene expression data BC008626 (Icam1),[1]; 24 h average,0.8234
same,Gene expression data BC010462 (BC010462),[1]; 24 h average,0.6663
same,Gene expression data BC012247 (Dcxr),[1]; 24 h average,0.4451
same,Gene expression data BC012260 (Psmf1),[1]; 24 h average,0.3127
same,Gene expression data BC015270 (Hist2h3c2),[1]; 24 h average,0.7908
same,Gene expression data BC016073 (Cdkal1),[1]; 24 h average,−0.6631
same,Gene expression data BC016265 (Ube2e2),[1]; 24 h average,−0.751
same,Gene expression data BC019882 (Acaa1b),[1]; 24 h average,2.0133
same,Gene expression data BC025501 (Aaas),[1]; 24 h average,1.5389
same,Gene expression data BC025837 (Sbk1),[1]; 24 h average,0.3802
same,Gene expression data BC025915 (Cova1),[1]; 24 h average,−0.5396
same,Gene expression data BC026422 (Tgm1),[1]; 24 h average,0.6019
same,Gene expression data BF719766 (Thyn1),[1]; 24 h average,0.9747
same,Gene expression data BG065754 (Ccng1),[1]; 24 h average,0.8607
same,Gene expression data BG066903 (Kif16b),[1]; 24 h average,−0.133
same,Gene expression data BG069873 (Gnb1l),[1]; 24 h average,1.299
same,Gene expression data BG070887 (Gtdc1),[1]; 24 h average,−0.9734
same,Gene expression data BG076151 (Ppm1d),[1]; 24 h average,0.728
same,Gene expression data BG261907 (Large),[1]; 24 h average,−1.3429
same,Gene expression data BI651416 (Cdc42bpg),[1]; 24 h average,1.679
same,Gene expression data BI660702 (Ell3),[1]; 24 h average,1.3867
same,Gene expression data BM198879 (Ercc5),[1]; 24 h average,1.054
same,Gene expression data BM230508 (A030007D23Rik),[1]; 24 h average,1.297
same,Gene expression data NM_007987 (Fas),[1]; 24 h average,0.8287
same,Gene expression data NM_008522 (Ltf),[1]; 24 h average,1.114
same,Gene expression data NM_008576 (Abcc1),[1]; 24 h average,0.1024
same,Gene expression data NM_011176 (St14),[1]; 24 h average,1.508
same,Gene expression data NM_011316 (Saa4),[1]; 24 h average,0.1871
same,Gene expression data NM_012006 (Acot1),[1]; 24 h average,3.255
same,Gene expression data NM_013866 (Zfp385),[1]; 24 h average,0.776
same,Gene expression data NM_018770 (Igsf4a),[1]; 24 h average,−0.8982
same,Gene expression data NM_021451 (Pmaip1),[1]; 24 h average,0.6364
same,Gene expression data NM_025770 (Atg10),[1]; 24 h average,−1.053
same,Gene expression data NM_028803 (Gbe1),[1]; 24 h average,−0.5416
same,Gene expression data NM_030697 (Ankrd47),[1]; 24 h average,1.4578
same,Gene expression data NM_053168 (Trim11),[1]; 24 h average,0.823
same,Gene expression data NM_134188 (Acot2),[1]; 24 h average,0.5856
same,Gene expression data Y15910 (Diap2),[1]; 24 h average,−1.352
same,Gene expression AA561726 average,[1]; 48 h,−1.7432
same,Gene expression AF000969 average,[1]; 48 h,−2.251
same,Gene expression AF022072 average,[1]; 48 h,−1.018
same,Gene expression AF033112 average,[1]; 48 h,1.4254
same,Gene expression AF055573 average,[1]; 48 h,−1.5573
same,Gene expression AF069954 average,[1]; 48 h,0.8863
same,Gene expression AF297615 average,[1]; 48 h,1.572
same,Gene expression AF335325 average,[1]; 48 h,1.4875
same,Gene expression AI594683 average,[1]; 48 h,1.466
same,Gene expression AI747296 average,[1]; 48 h,−2.124
same,Gene expression AK005731 average,[1]; 48 h,3.0498
same,Gene expression AK007854 average,[1]; 48 h,1.6125
same,Gene expression AK010447 average,[1]; 48 h,−1.207
same,Gene expression AK010738 average,[1]; 48 h,0.9112
same,Gene expression AK014608 average,[1]; 48 h,1.245
same,Gene expression AK017734 average,[1]; 48 h,0.7529
same,Gene expression AK018383 average,[1]; 48 h,1.273
same,Gene expression AK019979 average,[1]; 48 h,−1.0966
same,Gene expression AV095209 average,[1]; 48 h,−0.7654
same,Gene expression AV141095 average,[1]; 48 h,−1.4056
same,Gene expression AV173869 average,[1]; 48 h,−1.924
same,Gene expression AV216768 average,[1]; 48 h,−1.447
same,Gene expression AV219418 average,[1]; 48 h,1.558
same,Gene expression AV221299 average,[1]; 48 h,−1.169
same,Gene expression AV246296 average,[1]; 48 h,1.1524
same,Gene expression AV251625 average,[1]; 48 h,1.731
same,Gene expression AV254764 average,[1]; 48 h,1.48
same,Gene expression AV327248 average,[1]; 48 h,2.067
same,Gene expression BB009155 average,[1]; 48 h,0.784
same,Gene expression BB027848 average,[1]; 48 h,0.4738
same,Gene expression BB043558 average,[1]; 48 h,1.692
same,Gene expression BB046347 average,[1]; 48 h,0.7766
same,Gene expression BB140436 average,[1]; 48 h,−0.4572
same,Gene expression BB204486 average,[1]; 48 h,−1.5693
same,Gene expression BB223872 average,[1]; 48 h,1.1634
same,Gene expression BB246912 average,[1]; 48 h,−1.54
same,Gene expression BB275142 average,[1]; 48 h,1.0559
same,Gene expression BB458460 average,[1]; 48 h,−1.384
same,Gene expression BB463610 average,[1]; 48 h,1.672
same,Gene expression BB730977 average,[1]; 48 h,0.4218
same,Gene expression BB743970 average,[1]; 48 h,1.51
same,Gene expression BB770528 average,[1]; 48 h,0.7877
same,Gene expression BB781615 average,[1]; 48 h,0.9271
same,Gene expression BC003284 average,[1]; 48 h,0.7313
same,Gene expression BC004827 average,[1]; 48 h,−1.186
same,Gene expression BC005552 average,[1]; 48 h,−0.2121
same,Gene expression BC006713 average,[1]; 48 h,0.4721
same,Gene expression BC010318 average,[1]; 48 h,−0.5529
same,Gene expression BC012247 average,[1]; 48 h,1.477
same,Gene expression BC012955 average,[1]; 48 h,−0.9445
same,Gene expression BC013893 average,[1]; 48 h,1.04
same,Gene expression BC017615 average,[1]; 48 h,−2.234
same,Gene expression BC019379 average,[1]; 48 h,−1.9807
same,Gene expression BC019882 average,[1]; 48 h,2.16
same,Gene expression BC021352 average,[1]; 48 h,0.7052
same,Gene expression BC022148 average,[1]; 48 h,1.324
same,Gene expression BC025169 average,[1]; 48 h,−0.5114
same,Gene expression BC026131 average,[1]; 48 h,−1.045
same,Gene expression BC027026 average,[1]; 48 h,1.379
same,Gene expression BC027121 average,[1]; 48 h,1.345
same,Gene expression BC027185 average,[1]; 48 h,0.7081
same,Gene expression BE956581 average,[1]; 48 h,1.451
same,Gene expression BF719766 average,[1]; 48 h,0.9507
same,Gene expression BG065754 average,[1]; 48 h,0.9746
same,Gene expression BG066491 average,[1]; 48 h,−2.098
same,Gene expression BG076151 average,[1]; 48 h,0.7599
same,Gene expression BG076333 average,[1]; 48 h,−0.4091
same,Gene expression BG797099 average,[1]; 48 h,1.8809
same,Gene expression BG967046 average,[1]; 48 h,0.5936
same,Gene expression BI651416 average,[1]; 48 h,1.9573
same,Gene expression BI966443 average,[1]; 48 h,1.3186
same,Gene expression BM198879 average,[1]; 48 h,0.8089
same,Gene expression BM200015 average,[1]; 48 h,1.0174
same,Gene expression BM230508 average,[1]; 48 h,1.158
same,Gene expression BM936480 average,[1]; 48 h,3.0213
same,Gene expression BQ174991 average,[1]; 48 h,−1.408
same,Gene expression L21027 average,[1]; 48 h,−1.779
same,Gene expression NM_007556 average,[1]; 48 h,−1.089
same,Gene expression NM_007980 average,[1]; 48 h,1.753
same,Gene expression NM_007987 average,[1]; 48 h,1.353
same,Gene expression NM_008522 average,[1]; 48 h,2.9351
same,Gene expression NM_008935 average,[1]; 48 h,−1.4799
same,Gene expression NM_009897 average,[1]; 48 h,1.182
same,Gene expression NM_011075 average,[1]; 48 h,1.198
same,Gene expression NM_011176 average,[1]; 48 h,1.4287
same,Gene expression NM_011316 average,[1]; 48 h,0.8735
same,Gene expression NM_012006 average,[1]; 48 h,2.867
same,Gene expression NM_013642 average,[1]; 48 h,−1.442
same,Gene expression NM_013738 average,[1]; 48 h,0.9012
same,Gene expression NM_013929 average,[1]; 48 h,1.062
same,Gene expression NM_018881 average,[1]; 48 h,3.369
same,Gene expression NM_019738 average,[1]; 48 h,−2.586
same,Gene expression NM_030697 average,[1]; 48 h,1.3687
same,Gene expression NM_053122 average,[1]; 48 h,−1.795
same,Gene expression NM_134147 average,[1]; 48 h,−1.2396
same,Gene expression NM_134188 average,[1]; 48 h,0.2884
same,Gene expression X62701 average,[1]; 48 h,−1.2338
same,Gene expression data AF204959 (Cyp3a25 /// LOC622249),[2],0.3057
